# Values of other authors, collected in patent publication US12551426B2, “Method for treating hair, comprising the application of a first agent (a) having a silane and a chromophoric compound, and a second agent (b) having a film-forming polymer” (Henkel AG & Co. KGaA, priority 2018, dated 2026).
# Settings: 25° C.
solubility in water (in words),Compound,solubility in water
–,"O=C([O-])c1c(Cl)c(Cl)c(Cl)c(Cl)c1-c1c2c(Br)cc(=O)c(Br)c-2oc2c(Br)c(O)cc(Br)c12.O=C([O-])c1c(Cl)c(Cl)c(Cl)c(Cl)c1-c1c2c(Br)cc(=O)c(Br)c-2oc2c(Br)c(O)cc(Br)c12.[Na+].[Na+] [Acid Red 92, disodium salt of 3,4,5,6-tetrachloro-2-(1,4,5,8-tetrabromo-6-hydroxy-3-oxoxanthen-9-yl)benzoic acid]",greater than 10 g/L
highly soluble in water,"O=C([O-])C1=NN(c2ccc(S(=O)(=O)[O-])cc2)C(=O)C1N=Nc1ccc(S(=O)(=O)[O-])cc1.[Na+].[Na+].[Na+] (centres unmarked) [Acid Yellow 23, trisodium salt of 4,5-dihydro-5-oxo-1-(4-sulfophenyl)-4-((4-sulfophenyl)azo)-1H-pyrazole-3-carboxylic acid]",–
–,Acid Yellow 3,20 mg/mL
–,"Nc1cc(S(=O)(=O)[O-])cc2cc(S(=O)(=O)[O-])c(N=Nc3ccccc3)c(O)c12.[Na+].[Na+] [Acid Red 33, diantrium salt of 5-amino-4-hydroxy-3-(phenylazo)-naphthalene-2,7-disulphonate]",2.5 mg/mL
–,"O=S(=O)([O-])c1ccc(N=Nc2c(O)ccc3ccccc23)cc1.[Na+] [Acid Orange 7, sodium salt of 4-[(2-hydroxy-1-naphthyl)azo]benzene sulphonate]",more than 7 g/L
